Patent US5520918A, “Low irritant skin-cosmetic composition for daily topical use, its application and manufacture” (Mary Kay Cosmetics, Inc., priority 1994, dated 1996)

Tests used:
skin pH = assay: Test I: duration of skin pH changes; format: in vivo, human (volunteer subjects); details: text to Test I
Protocol: Tests were performed on volunteer subjects using the procedures, conditions and ingredients substantially as described in connection with Test F above, while employing the proportion of active acidic ingredients indicated.

hair-loss = assay: Hair-loss prevention efficacy of minoxidil combined with the two-component acid system (preliminary data); format: in vivo

Which “duration of impact on skin pH changes” value (skin pH) does the source give for `O=C(O)C(O)C(O)C(=O)O` (stereo not drawn) [(+)tartaric acid] here?
The value was 2 hours.

Which “efficacy of minoxidil in combination (in words)” value (hair-loss) does the source give for `Nc1cc(N2CCCCC2)nc(N)[n+]1[O-]` [minoxidil] here?
Its value is “enhanced by combination with the inventive two-component acid system”.

What does the source list for `O=C(O)c1ccccc1O` [salicylic acid, 2-hydroxybenzoic acid]?
water solubility (in words): only moderately or sparingly water soluble; water solubility (text to Test I): less than 1 g. in 5 ml. of water
